Data set [1] in a line: Antiinflammatory activity in mouse BV2 cells assessed as inhibition of LPS-induced nitric oxide production after 24 hrs by Griess method. The format is functional, cell-based. As to conditions: BV-2, 24 h. A general note: Nitrite, measured by Griess reagent, commonly stands in for NO production.
A short description of data set [2]: Cytotoxicity against mouse BV2 cells assessed as cell viability by MTT assay relative to LPS-treated control. The data set is classed as cell-based, BV-2. As to conditions: read-out: Activity. On the set-up: concentration or dose not given beside the values.
In the next data set the test system is A2780. The experiment in a line: Cytotoxicity against human A2780 cells after 96 hrs by MTT assay. The format is functional, cell-based. As to conditions: A2780, 96 h.
Data set [3] in a line: Cytotoxicity against human HCT8 cells after 96 hrs by MTT assay. As to conditions: HCT-8, 96 h. The data set is classed as functional, cell-based. Background: Tetrazolium assays rely on reduction of a dye to a coloured formazan, in cell work by metabolically active cells.
In another data set the test system is A549. The experiment in a line: Cytotoxicity against human A549 cells after 96 hrs by MTT assay. The format is functional, cell-based. As to conditions: A549, 96 h.
Data set [4] in a line: Cytotoxicity against human BGC823 cells after 96 hrs by MTT assay. The data set is classed as functional, cell-based. To be noted: BGC-823, 96 h.
A short description of data set [5]: Cytotoxicity against human Bel7402 cells after 96 hrs by MTT assay. The data set is classed as functional, cell-based. To be noted: Bel-7402, 96 h.

Broadly, the IC50 is the concentration that inhibits the measured activity by half.

For the compound `C[C@H](C(=O)O)[C@@H]1CC[C@]2(C)CC[C@]3(C)[C@H](CC[C@@H]4[C@@]5(C)CC[C@@H](O)C(C)(C)[C@@H]5CC[C@]43C)[C@@H]12`, the IC50 in data set [1] is 7.39 µM; with A2780, over 10 µM; in data set [3], over 10 µM; in the data set with A549 it was over 10 µM; in data set [4] it was over 10 µM; in data set [5] it was over 10 µM. The viability in data set [2] came out at 87.3%.

For `CC(=O)O[C@@H]1CC[C@]2(C)[C@H]3CC[C@@H]4[C@H]5[C@H]([C@H](C)C(=O)O)CC[C@]5(C)CC[C@@]4(C)[C@]3(C)CC[C@H]2C1(C)C`, the IC50 is 7.48 µM in data set [1]; over 10 µM with A2780; over 10 µM in data set [3]; over 10 µM in the data set on A549; over 10 µM in data set [4]; over 10 µM in data set [5]. In addition, the viability in data set [2] turned out to be 98.5%.

As to `C=C(C)[C@@H]1CC[C@]2(CO)CC[C@]3(C)[C@H](CC[C@@H]4[C@@]5(C)CC[C@@H](O)C(C)(C)[C@@H]5CC[C@]43C)[C@@H]12` [3-EPI-BETULIN], the IC50 in data set [1] was 2.54 µM; in the data set with A2780, over 10 µM; in data set [3], over 10 µM; in the data set with A549 it was over 10 µM; in data set [4] it was over 10 µM; in data set [5], over 10 µM. Moreover, the viability in data set [2] was 89.3%.

The values are drawn from ChEMBL document CHEMBL3108727, “Lupane triterpenoids from the stems of Euonymus carnosus” (J Nat Prod, 2014).
